For 6 molecules, EC50 results are on record in patent publication US20230346961A1, “GLP-1 AND GIP RECEPTOR CO-AGONISTS” (Novo Nordisk A/S, priority 2020, published 2023).

Molecules are shown by their SMILES. Starred links: 1 amine or outer side, 2 acyl side, 3 side chain; linkers in the order of their positions; H or OH if unused. Non-standard residues stand in square brackets, D forms with d. Residues, ends and D or L forms follow the SMILES beside them. Groups on a side chain read outwards from the residue. *: point of attachment. C20 diacid = O=C(O)CCCCCCCCCCCCCCCCCCC(=O)*; C18 diacid = O=C(O)CCCCCCCCCCCCCCCCC(=O)*; γGlu = O=C(O)[C@H](CCC(=O)[*:2])N[*:1]; εLys = N[C@@H](CCCCN[*:1])C(=O)[*:2]; Trx = NC[C@H]1CC[C@H](C(=O)O)CC1; AEEA = NCCOCCOCC(=O)O; Aib = CC(C)(N)C(=O)O

One assay concerns the target human GLP-1 receptor (Homo sapiens, UniProt P43220). Description: cell-based. The following applies: hGLP-1R.
The target in a further assay is T1, mouse GLP-1 receptor (Mus musculus, UniProt O35659).
T1 sequence (O35659 22-463): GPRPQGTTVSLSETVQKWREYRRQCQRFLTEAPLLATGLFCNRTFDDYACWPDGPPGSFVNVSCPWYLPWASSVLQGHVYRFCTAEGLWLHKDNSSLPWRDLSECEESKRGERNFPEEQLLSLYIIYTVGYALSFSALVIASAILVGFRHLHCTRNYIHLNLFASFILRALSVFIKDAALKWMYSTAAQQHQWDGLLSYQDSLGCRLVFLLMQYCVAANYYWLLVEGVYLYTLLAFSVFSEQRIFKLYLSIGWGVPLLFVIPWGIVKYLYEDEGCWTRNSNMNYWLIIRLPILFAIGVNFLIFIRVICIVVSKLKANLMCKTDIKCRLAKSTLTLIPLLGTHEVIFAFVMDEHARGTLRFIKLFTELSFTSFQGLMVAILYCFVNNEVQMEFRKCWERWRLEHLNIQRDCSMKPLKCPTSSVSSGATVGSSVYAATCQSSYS

The target in the next assay is T2, mouse GIP receptor (Mus musculus, UniProt Q0P543).
T2 sequence (Q0P543 19-460): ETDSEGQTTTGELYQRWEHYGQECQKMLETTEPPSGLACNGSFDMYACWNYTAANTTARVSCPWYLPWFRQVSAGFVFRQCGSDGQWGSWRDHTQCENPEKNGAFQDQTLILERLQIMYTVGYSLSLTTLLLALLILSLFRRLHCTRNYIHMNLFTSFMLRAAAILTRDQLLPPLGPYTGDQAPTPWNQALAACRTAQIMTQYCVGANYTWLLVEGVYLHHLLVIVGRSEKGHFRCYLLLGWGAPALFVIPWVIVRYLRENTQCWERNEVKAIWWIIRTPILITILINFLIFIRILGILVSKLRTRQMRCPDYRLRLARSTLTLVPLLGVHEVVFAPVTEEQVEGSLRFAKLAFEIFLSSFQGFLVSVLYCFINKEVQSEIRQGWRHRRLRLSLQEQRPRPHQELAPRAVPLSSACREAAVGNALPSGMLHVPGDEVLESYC
Put plainly: cell-based.

Sequence of human GLP-1 receptor (P43220 24-463): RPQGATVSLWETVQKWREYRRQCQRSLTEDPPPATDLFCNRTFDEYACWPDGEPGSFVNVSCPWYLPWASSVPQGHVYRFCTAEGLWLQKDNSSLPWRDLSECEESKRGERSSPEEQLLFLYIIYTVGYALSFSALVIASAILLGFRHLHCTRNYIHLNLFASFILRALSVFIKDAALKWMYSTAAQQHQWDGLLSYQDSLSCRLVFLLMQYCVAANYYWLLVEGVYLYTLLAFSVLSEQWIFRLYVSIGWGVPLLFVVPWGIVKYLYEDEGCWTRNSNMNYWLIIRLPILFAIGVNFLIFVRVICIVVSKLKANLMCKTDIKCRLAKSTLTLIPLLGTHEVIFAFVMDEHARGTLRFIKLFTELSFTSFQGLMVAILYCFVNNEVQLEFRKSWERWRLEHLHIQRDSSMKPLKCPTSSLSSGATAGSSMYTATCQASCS
Procedure for human GLP-1 receptor: (§1) The in vitro functional potency is the measure of target receptor activation in a whole cell assay.
(§2) In vitro functional potency was determined by measuring the response of the target receptor in a reporter gene assay in individual cell lines. […] When the respective receptor is activated, it results in the production of cAMP, which in turn results in expression of the luciferase protein. When assay incubation is completed, luciferase substrate (luciferin) is added resulting in the enzymatic conversion of luciferin to oxyluciferin and producing bioluminescence. The luminescence is measured as the readout for the assay.
(§3) The cells lines used in these assays were BHK cells with BHKTS13 as a parent cell line. The cell lines were derived from a clone containing the CRE luciferase element and were established by further transfection with the respective receptor to obtain the relevant cell line.
(§4) The cells were cultured at 37° C. with 5% CO2 in Cell Culture Medium. They were aliquoted and stored in liquid nitrogen. The cells were kept in continuous culture and were seeded out the day before each assay.
(§5) GLP-1R and GcgR Cell Culture Medium consisted of DMEM medium with 10% FBS, 500 μg/mL G418, and 300 μg/mL hygromycin. GIPR Cell Culture Medium consisted of DMEM medium with 10% FBS, 400 μg/mL G418, and 300 μg/mL hygromycin. Assay Buffer consisted of DMEM w/o phenol red, 10 mM Hepes, 1×Glutamax, 1% ovalbumin, and 0.1% Pluronic F-68 with the addition of HSA at twice the final assay concentration.
(§6) • 1) Cells were plated at 5000 cells/well and incubated overnight in the assay plate. • 2) Cells were washed once in DPBS. • 3) Stocks of the test compounds and reference compounds in concentrations ranging from 100-300 μM were diluted 1:150 in Assay Buffer. Compounds were then diluted 1:10 in column 1 of a 96 deep well dilution plate and then carried across the row creating a 3.5 fold, 12 point dilution curve. • 4) Assay Buffer (50 μl aliquot) with or without HSA was added to each well in the assay plate. • 5) A 50 μl aliquot of compound or blank was transferred from the dilution plate to the assay plate containing the Assay Buffer with or without HSA. • 6) The assay plate was incubated for 3 h in a 5% CO2 incubator at 37° C. 7) The cells were washed once with DPBS. • 8) A 100 μl aliquot of DPBS was added to each well of the assay plate. • 9) A 100 μl aliquot of steadylite plus reagent (light sensitive) was added to each well of the assay plate. • 10) Each assay plate was covered with aluminum foil to protect it from light and shaken at 250 RPM for 30 min at room temperature. • 11) Each assay plate was read in a microtiter plate reader.
(§7) The data from the microtiter plate reader was first regressed in an Excel in order to calculate the x-axis, log scale concentrations based on the individual test compound's stock concentration and the dilutions of the assay. […] The software performs a non-linear regression (log(agonist) vs response). A minimum of two replicates was measured for each sample. The reported values are averages of the replicates.
Procedure for mouse GLP-1 receptor: as §1, §2, §3, §4, §5, §6, §7

The EC50 is the concentration needed to bring the measured effect to its halfway point. A lower EC50 goes with a more potent agent. `CC[C@H](C)[C@H](NC(=O)[C@H](CO)NC(=O)[C@H](Cc1ccc(O)cc1)NC(=O)[C@H](CC(=O)O)NC(=O)[C@H](CO)NC(=O)[C@@H](NC(=O)[C@H](Cc1ccccc1)NC(=O)[C@@H](NC(=O)CNC(=O)[C@H](CCC(=O)O)NC(=O)C(C)(C)NC(=O)[C@@H](N)Cc1ccc(O)cc1)[C@@H](C)O)[C@@H](C)O)C(=O)N[C@@H](Cc1ccc(O)cc1)C(=O)N[C@@H](CC(C)C)C(=O)N[C@@H](CCC(=O)O)C(=O)N[C@@H](CCCCN)C(=O)N[C@@H](CCC(N)=O)C(=O)N[C@@H](C)C(=O)N[C@@H](C)C(=O)NC(C)(C)C(=O)N[C@@H](CCCCNC(=O)COCCOCCNC(=O)COCCOCCNC(=O)CC[C@H](NC(=O)[C@H]1CC[C@H](CNC(=O)CCCCCCCCCCCCCCCCCCC(=O)O)CC1)C(=O)O)C(=O)N[C@@H](Cc1ccccc1)C(=O)N[C@H](C(=O)N[C@@H](CC(N)=O)C(=O)N[C@@H](Cc1c[nH]c2ccccc12)C(=O)N[C@@H](CC(C)C)C(=O)N[C@@H](CC(C)C)C(=O)N[C@@H](C)C(=O)NCC(=O)NCC(=O)N1CCC[C@H]1C(=O)N[C@@H](CO)C(=O)N[C@@H](CO)C(=O)NCC(=O)N[C@@H](C)C(N)=O)C(C)C` [Compound 32] (H-Y[Aib]EGTFTSDYSIYLEKQAA[Aib]K([AEEA-AEEA-γGlu-Trx-C20 diacid])FVNWLLAGGPSSGA-NH2; N-terminus assumed): the EC50 at human GLP-1 receptor (CRE Luc 0% HSA EC50, 0% HSA) was 0.0117 nM; on human GLP-1 receptor (CRE Luc 1% HSA EC50, 1% HSA), 0.221 nM; at mouse GLP-1 receptor, 0.0025 nM; on mouse GIP receptor, 0.0802 nM.
With `CC[C@H](C)[C@H](NC(=O)[C@H](CO)NC(=O)[C@H](Cc1ccc(O)cc1)NC(=O)[C@H](CC(=O)O)NC(=O)[C@H](CO)NC(=O)[C@@H](NC(=O)[C@H](Cc1ccccc1)NC(=O)[C@@H](NC(=O)CNC(=O)[C@H](CCC(=O)O)NC(=O)C(C)(C)NC(=O)[C@@H](N)Cc1ccc(O)cc1)[C@@H](C)O)[C@@H](C)O)C(=O)N[C@@H](Cc1ccc(O)cc1)C(=O)N[C@@H](CC(C)C)C(=O)N[C@@H](CCC(=O)O)C(=O)N[C@@H](CCCCN)C(=O)N[C@@H](CCC(N)=O)C(=O)N[C@@H](C)C(=O)N[C@@H](C)C(=O)NC(C)(C)C(=O)N[C@@H](CCCCNC(=O)[C@@H](N)CCCCNC(=O)[C@@H](N)CCCCNC(=O)CC[C@H](NC(=O)CCCCCCCCCCCCCCCCC(=O)O)C(=O)O)C(=O)N[C@@H](Cc1ccccc1)C(=O)N[C@H](C(=O)N[C@@H](CC(N)=O)C(=O)N[C@@H](Cc1c[nH]c2ccccc12)C(=O)N[C@@H](CC(C)C)C(=O)N[C@@H](CC(C)C)C(=O)N[C@@H](C)C(=O)NCC(=O)NCC(=O)N1CCC[C@H]1C(=O)N[C@@H](CO)C(=O)N[C@@H](CO)C(=O)NCC(=O)N[C@@H](C)C(=O)N1CCC[C@H]1C(=O)N1CCC[C@H]1C(=O)N1CCC[C@H]1C(=O)N[C@@H](CO)C(N)=O)C(C)C` [Compound 15] (H-Y[Aib]EGTFTSDYSIYLEKQAA[Aib]K([εLys-εLys-γGlu-C18 diacid])FVNWLLAGGPSSGAPPPS-NH2; N-terminus assumed), the EC50 on human GLP-1 receptor (CRE Luc 0% HSA EC50, 0% HSA) turned out to be 0.0061 nM; at human GLP-1 receptor (CRE Luc 1% HSA EC50, 1% HSA) it was 0.128 nM; at mouse GLP-1 receptor it was 0.0017 nM; at mouse GIP receptor, 0.0273 nM.
At mouse GLP-1 receptor, `CC[C@H](C)[C@H](NC(=O)[C@H](CO)NC(=O)[C@H](Cc1ccc(O)cc1)NC(=O)[C@H](CC(=O)O)NC(=O)[C@H](CO)NC(=O)[C@@H](NC(=O)[C@H](Cc1ccccc1)NC(=O)[C@@H](NC(=O)CNC(=O)[C@H](CCC(=O)O)NC(=O)[C@H](C)NC(=O)[C@@H](Cc1ccc(O)cc1)NC(C)=O)[C@@H](C)O)[C@@H](C)O)C(=O)N[C@@H](Cc1ccc(O)cc1)C(=O)N[C@@H](CC(C)C)C(=O)N[C@@H](CC(=O)O)C(=O)N[C@@H](CCCCN)C(=O)N[C@@H](CCC(N)=O)C(=O)N[C@@H](C)C(=O)N[C@@H](C)C(=O)NC(C)(C)C(=O)N[C@@H](CCCCNC(=O)[C@@H](N)CCCCNC(=O)[C@@H](N)CCCCNC(=O)CC[C@H](NC(=O)CCCCCCCCCCCCCCCCC(=O)O)C(=O)O)C(=O)N[C@@H](Cc1ccccc1)C(=O)N[C@H](C(=O)N[C@@H](CC(N)=O)C(=O)N[C@@H](Cc1c[nH]c2ccccc12)C(=O)N[C@@H](CC(C)C)C(=O)N[C@@H](CC(C)C)C(=O)N[C@@H](C)C(=O)NCC(=O)NCC(=O)N1CCC[C@H]1C(=O)N[C@@H](CO)C(=O)N[C@@H](CO)C(=O)NCC(=O)N[C@@H](C)C(=O)N1CCC[C@H]1C(=O)N1CCC[C@H]1C(=O)N1CCC[C@H]1C(=O)N[C@@H](CO)C(N)=O)C(C)C` [Compound 8] (Ac-[dY]AEGTFTSDYSIYLDKQAA[Aib]K([εLys-εLys-γGlu-C18 diacid])FVNWLLAGGPSSGAPPPS-NH2) returned an EC50 of 0.017 nM.
For the molecule `CC[C@H](C)[C@H](NC(=O)[C@H](CO)NC(=O)[C@H](Cc1ccc(O)cc1)NC(=O)[C@H](CC(=O)O)NC(=O)[C@H](CO)NC(=O)[C@@H](NC(=O)[C@H](Cc1ccccc1)NC(=O)[C@@H](NC(=O)CNC(=O)[C@H](CCC(=O)O)NC(=O)C(C)(C)NC(=O)[C@@H](N)Cc1ccc(O)cc1)[C@@H](C)O)[C@@H](C)O)C(=O)N[C@@H](Cc1ccc(O)cc1)C(=O)N[C@@H](CC(C)C)C(=O)N[C@@H](CC(=O)O)C(=O)N[C@@H](CCCCN)C(=O)N[C@@H](CCC(N)=O)C(=O)N[C@@H](C)C(=O)N[C@@H](C)C(=O)NC(C)(C)C(=O)N[C@@H](CCC(=O)O)C(=O)N[C@@H](Cc1ccccc1)C(=O)N[C@H](C(=O)N[C@@H](CC(N)=O)C(=O)N[C@@H](Cc1c[nH]c2ccccc12)C(=O)N[C@@H](CC(C)C)C(=O)N[C@@H](CC(C)C)C(=O)N[C@@H](C)C(=O)NCC(=O)NCC(=O)N1CCC[C@H]1C(=O)N[C@@H](CO)C(=O)N[C@@H](CO)C(=O)NCC(=O)N[C@@H](C)C(=O)N1CCC[C@H]1C(=O)N1CCC[C@H]1C(=O)N1CCC[C@H]1C(=O)N[C@@H](CO)C(=O)N[C@@H](CCCCNC(=O)CCCCCCCCCCCCCCCCC(=O)O)C(N)=O)C(C)C` [Compound 2], the half-maximal effective concentration (EC50) on human GLP-1 receptor (CRE Luc 0% HSA EC50, 0% HSA) amounted to 0.0675 nM; on human GLP-1 receptor (CRE Luc 1% HSA EC50, 1% HSA), 0.439 nM.
With `CC[C@H](C)[C@H](NC(=O)[C@H](CO)NC(=O)[C@H](Cc1ccc(O)cc1)NC(=O)[C@H](CC(=O)O)NC(=O)[C@H](CO)NC(=O)[C@@H](NC(=O)[C@H](Cc1ccccc1)NC(=O)[C@@H](NC(=O)CNC(=O)[C@H](CCC(=O)O)NC(=O)C(C)(C)NC(=O)[C@@H](N)Cc1ccc(O)cc1)[C@@H](C)O)[C@@H](C)O)C(=O)N[C@@H](Cc1ccc(O)cc1)C(=O)N[C@@H](CC(C)C)C(=O)N[C@@H](CC(=O)O)C(=O)N[C@@H](CCCCN)C(=O)N[C@@H](CCC(N)=O)C(=O)N[C@@H](C)C(=O)N[C@@H](C)C(=O)NC(C)(C)C(=O)N[C@@H](CCCCNC(=O)CC[C@H](NC(=O)CC[C@H](NC(=O)CC[C@H](NC(=O)CCCCCCCCCCCCCCCCC(=O)O)C(=O)O)C(=O)O)C(=O)O)C(=O)N[C@@H](Cc1ccccc1)C(=O)N[C@H](C(=O)N[C@@H](CC(N)=O)C(=O)N[C@@H](Cc1c[nH]c2ccccc12)C(=O)N[C@@H](CC(C)C)C(=O)N[C@@H](CC(C)C)C(=O)N[C@@H](C)C(=O)NCC(=O)NCC(=O)N1CCC[C@H]1C(=O)N[C@@H](CO)C(=O)N[C@@H](CO)C(=O)NCC(=O)N[C@@H](C)C(=O)N1CCC[C@H]1C(=O)N1CCC[C@H]1C(=O)N1CCC[C@H]1C(=O)N[C@@H](CO)C(N)=O)C(C)C` [Compound 6] (H-Y[Aib]EGTFTSDYSIYLDKQAA[Aib]K([γGlu-γGlu-γGlu-C18 diacid])FVNWLLAGGPSSGAPPPS-NH2; N-terminus assumed), the EC50 at human GLP-1 receptor (CRE Luc 0% HSA EC50, 0% HSA) is 0.0059 nM; at mouse GLP-1 receptor it was 0.0023 nM.
For the molecule `CC[C@H](C)[C@H](NC(=O)[C@H](CO)NC(=O)[C@H](Cc1ccc(O)cc1)NC(=O)[C@H](CC(=O)O)NC(=O)[C@H](CO)NC(=O)[C@@H](NC(=O)[C@H](Cc1ccccc1)NC(=O)[C@@H](NC(=O)CNC(=O)[C@H](CCC(=O)O)NC(=O)C(C)(C)NC(=O)[C@@H](N)Cc1ccc(O)cc1)[C@@H](C)O)[C@@H](C)O)C(=O)N[C@@H](Cc1ccc(O)cc1)C(=O)N[C@@H](CC(C)C)C(=O)N[C@@H](CC(=O)O)C(=O)N[C@@H](CCCCN)C(=O)N[C@@H](CCC(N)=O)C(=O)N[C@@H](C)C(=O)N[C@@H](C)C(=O)NC(C)(C)C(=O)N[C@@H](CCC(=O)O)C(=O)N[C@@H](Cc1ccccc1)C(=O)N[C@H](C(=O)N[C@@H](CC(N)=O)C(=O)N[C@@H](Cc1c[nH]c2ccccc12)C(=O)N[C@@H](CC(C)C)C(=O)N[C@@H](CC(C)C)C(=O)N[C@@H](C)C(=O)NCC(=O)NCC(=O)N1CCC[C@H]1C(=O)N[C@@H](CO)C(=O)N[C@@H](CO)C(=O)NCC(=O)N[C@@H](C)C(=O)N1CCC[C@H]1C(=O)N1CCC[C@H]1C(=O)N1CCC[C@H]1C(=O)N[C@@H](CO)C(=O)N[C@@H](CCCCNC(=O)COCCOCCNC(=O)COCCOCCNC(=O)CC[C@H](NC(=O)CCCCCCCCCCCCCCCCC(=O)O)C(=O)O)C(N)=O)C(C)C` [Compound 3], the EC50 came to 0.0134 nM on human GLP-1 receptor (CRE Luc 0% HSA EC50, 0% HSA) and 0.606 nM at human GLP-1 receptor (CRE Luc 1% HSA EC50, 1% HSA).
